The target in assay [1] is T1, Serine racemase (Mus musculus, UniProt Q9QZX7).
T1 sequence (Q9QZX7 whole entry): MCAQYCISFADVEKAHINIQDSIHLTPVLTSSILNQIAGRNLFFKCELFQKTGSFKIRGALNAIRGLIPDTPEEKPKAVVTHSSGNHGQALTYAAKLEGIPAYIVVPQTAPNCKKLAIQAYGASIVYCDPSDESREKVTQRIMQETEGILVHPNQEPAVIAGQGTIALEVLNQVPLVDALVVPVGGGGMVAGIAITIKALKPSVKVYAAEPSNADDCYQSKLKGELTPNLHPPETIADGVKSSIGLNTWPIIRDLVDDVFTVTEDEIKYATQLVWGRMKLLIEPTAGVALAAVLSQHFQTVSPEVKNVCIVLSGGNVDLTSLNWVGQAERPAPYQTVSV
The assay is described as follows: Inhibition of mouse serine racemase using L-serine substrate by reversed-phase HPLC analysis.

Assay [2] addresses T1, Serine racemase. The assay is described as follows: Inhibition of mouse serine racemase by Lineweaver-Burk plot.

Molecules are shown by their SMILES.

Results on ten compounds are retold here after ChEMBL document CHEMBL3351913, “Malonate-based inhibitors of mammalian serine racemase: kinetic characterization and structure-based computational study” (Eur J Med Chem, 2015).

For `O=C(O)C(Cl)C(=O)O`, the IC50 (usually the midpoint of a concentration-inhibition curve) against Serine racemase [1] was 780 µM. The same measure, in the same setting: the value for `NC(C(=O)O)C(=O)O` was 400 µM; that for `O=C(O)C(F)(F)C(=O)O` was 2160 µM.

Compound `O=C(O)C(Cl)(Cl)C(=O)O` displayed an IC50 against Serine racemase [1] of 57 µM. In addition, the Ki (in general, the equilibrium dissociation constant of an inhibitor or competing ligand from its target) on Serine racemase [2] is 19 µM. On Serine racemase [1], `CC(C(=O)O)C(=O)O` [METHYLMALONIC ACID] registered an IC50 of 1850 µM. That is a millimolar value.

`O=C(O)C(O)C(=O)O` came in with an IC50 against Serine racemase [1] of 94 µM. Turning to `O=C(O)C(CO)(CO)C(=O)O`, the IC50 against Serine racemase [1] is 40600 µM.

At Serine racemase [1], `O=C(O)C(C(=O)O)c1ccsc1` gave an IC50 of 7030 µM. Compared with the last compound, the IC50 is about 5.8-fold lower. On to `O=C(O)CC(=O)O` [MALONIC ACID], for which the IC50 at Serine racemase [1] was determined as 67 µM. The compound further yielded a Ki on Serine racemase [2] of 27 µM. At Serine racemase [1], `CC(C)(C(=O)O)C(=O)O` had an IC50 of 5630 µM.
